# Entries after “also recorded” stand apart in the source; their conditions may differ. Like-named read-outs stand apart in the source and are kept apart here.
# Assays:
# thermal nociception [1] = format: in vivo, mice
# NMDA receptors = details: patch clamp
# [2] = target: NMDA receptor-ionophore complex (site labeled by [3H]MK-801); assay: Inhibition of [3H]MK-801 binding in rat cortical/hippocampal washed membrane preparations; details: read-out: IC50 (μM) vs. [3H]MK-801; rat cortical/hippocampal washed membranes
# [3] = system: acetic acid-induced writhing; format: in vivo, mice; details: i.p.
# locomotor activity = details: 32 mg/kg s.c.
# Experimental: The first assay simply monitors locomotor activity during the first hour following peripheral (s.c. or i.p.) administration of test substance. […] Activity was quantified by counting the number of breaks in a phototube grid in a 60 min period.
# thermal nociception [4] = format: in vivo, rats; details: 0.3-3 nmol i.th.
# Experimental: In this standard assay, the thermal nociceptive stimulus was 52° C. warm water with the latency to tail flick or withdrawal taken as the endpoint.
# sound-induced seizures = assay: Sound-induced seizures in Frings mice (reflex epilepsy); format: in vivo
# focal cerebral ischemia = assay: Middle cerebral artery occlusion, permanent, surgical ligation; format: in vivo, rat; details: single dose 30 mg/kg i.p. 30 minutes after occlusion; 24 hours
# Experimental: In the first study using this stroke model, one cerebral artery was permanently occluded by surgical ligation. The test compounds were administered 30 minutes after the occlusion by a single intraperitoneal (i.p.) injection. During the course of these experiments, the core body temperature of the animals was maintained at 37° C. to prevent any hypothermic reaction. Brains were assessed histologically for neuronal cell loss 24 hours later. Infarct volumes were calculated using the area of histological pallor from 10 slides and integrating the distance between each successive section.
# L-type calcium channel [5] = system: T1, L-type calcium channel; assay: Inhibition of KCl depolarization-induced increases in intracellular calcium in cultured rat cerebellar granule cells; format: cell-based
# T1 construct: L-type calcium channel: estimated IC50, KCl depolarization-induced increases in intracellular calcium; other: cultured
# Text: (§1) The ability of arylalkylamines to inhibit dihydropyridine-sensitive Ca^2+ channels was examined in cerebellar granule cells and a rat aortic smooth muscle cell line, A7r5 cells.
# [6] = target: voltage-sensitive Ca2+ channels (Rattus norvegicus, UniProt P22002); assay: cell-based
# Chain of voltage-sensitive Ca2+ channels (P22002 whole entry): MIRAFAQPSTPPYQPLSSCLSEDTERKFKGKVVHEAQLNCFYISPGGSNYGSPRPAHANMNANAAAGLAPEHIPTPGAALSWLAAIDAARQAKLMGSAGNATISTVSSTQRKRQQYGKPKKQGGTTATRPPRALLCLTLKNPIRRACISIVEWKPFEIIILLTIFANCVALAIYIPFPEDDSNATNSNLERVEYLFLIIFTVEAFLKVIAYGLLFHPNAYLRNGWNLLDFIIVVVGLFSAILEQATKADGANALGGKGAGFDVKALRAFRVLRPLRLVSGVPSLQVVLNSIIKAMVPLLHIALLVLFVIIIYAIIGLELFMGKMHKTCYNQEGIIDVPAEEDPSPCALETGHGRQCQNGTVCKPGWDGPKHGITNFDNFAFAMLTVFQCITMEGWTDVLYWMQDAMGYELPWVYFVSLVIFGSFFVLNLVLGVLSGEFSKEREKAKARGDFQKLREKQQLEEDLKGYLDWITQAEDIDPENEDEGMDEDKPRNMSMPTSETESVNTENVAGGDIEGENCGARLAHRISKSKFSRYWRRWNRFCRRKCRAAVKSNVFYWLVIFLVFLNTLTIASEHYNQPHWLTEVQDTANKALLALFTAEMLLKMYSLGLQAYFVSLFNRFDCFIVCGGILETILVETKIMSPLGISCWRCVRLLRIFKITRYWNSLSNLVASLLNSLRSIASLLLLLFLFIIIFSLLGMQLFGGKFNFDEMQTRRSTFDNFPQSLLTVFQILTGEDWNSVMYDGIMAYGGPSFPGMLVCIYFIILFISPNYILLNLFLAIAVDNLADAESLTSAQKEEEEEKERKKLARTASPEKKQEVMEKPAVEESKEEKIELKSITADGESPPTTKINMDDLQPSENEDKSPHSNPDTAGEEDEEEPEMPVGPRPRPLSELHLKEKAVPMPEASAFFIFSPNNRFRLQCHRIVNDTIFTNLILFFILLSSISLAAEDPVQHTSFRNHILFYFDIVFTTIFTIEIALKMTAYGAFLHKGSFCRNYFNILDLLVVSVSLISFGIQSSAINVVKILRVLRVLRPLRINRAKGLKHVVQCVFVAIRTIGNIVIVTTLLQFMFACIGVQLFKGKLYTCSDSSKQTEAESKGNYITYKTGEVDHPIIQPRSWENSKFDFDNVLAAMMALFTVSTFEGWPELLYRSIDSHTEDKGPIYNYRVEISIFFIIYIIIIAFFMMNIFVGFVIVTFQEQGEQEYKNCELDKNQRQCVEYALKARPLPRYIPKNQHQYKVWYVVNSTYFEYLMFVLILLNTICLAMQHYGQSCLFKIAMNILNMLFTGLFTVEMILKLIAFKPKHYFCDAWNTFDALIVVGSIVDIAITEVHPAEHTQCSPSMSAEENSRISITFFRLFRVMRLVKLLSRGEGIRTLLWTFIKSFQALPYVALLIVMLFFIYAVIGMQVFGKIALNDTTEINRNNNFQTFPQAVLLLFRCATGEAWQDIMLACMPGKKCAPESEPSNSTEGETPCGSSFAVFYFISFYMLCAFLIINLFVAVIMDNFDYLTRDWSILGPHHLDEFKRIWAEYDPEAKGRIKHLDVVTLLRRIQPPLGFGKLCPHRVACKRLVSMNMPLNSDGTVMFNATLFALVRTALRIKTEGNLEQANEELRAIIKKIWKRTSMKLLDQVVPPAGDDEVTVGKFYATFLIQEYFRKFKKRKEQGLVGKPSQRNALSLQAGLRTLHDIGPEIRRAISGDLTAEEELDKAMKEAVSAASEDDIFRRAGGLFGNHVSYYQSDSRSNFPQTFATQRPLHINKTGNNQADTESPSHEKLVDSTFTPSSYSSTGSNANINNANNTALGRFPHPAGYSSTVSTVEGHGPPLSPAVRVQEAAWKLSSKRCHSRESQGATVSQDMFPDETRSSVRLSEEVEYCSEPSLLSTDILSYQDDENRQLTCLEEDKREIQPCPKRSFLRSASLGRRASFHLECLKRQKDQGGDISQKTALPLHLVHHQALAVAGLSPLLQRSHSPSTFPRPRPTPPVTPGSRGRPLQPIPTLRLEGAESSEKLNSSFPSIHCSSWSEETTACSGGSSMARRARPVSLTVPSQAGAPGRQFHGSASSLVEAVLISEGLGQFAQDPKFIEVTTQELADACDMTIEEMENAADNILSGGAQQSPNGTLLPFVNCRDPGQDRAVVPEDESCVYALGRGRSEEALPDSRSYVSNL
# Text: as §1
# [7] = system: forebrain ischemia (neuronal cell death); format: in vivo, gerbil
# Experimental: Blood flow to the brain was interrupted for 7 minutes by clamping the carotid arteries. The test compounds were administered as a 'single dose given intraperitoneally (i.p.) 30 minutes after reinstating blood flow. During the course of these experiments, the core body temperature of the animals was maintained at 37° C. to prevent any hypothermic reaction. […]
# [8] = system: maximal electroshock-induced seizures; assay: Maximal electroshock-induced seizures in mice; format: in vivo; details: for ED50: Mus musculus, mice
# thermal nociception [9] = format: in vivo, rats; details: 0.3-3 nmol i.th.; remark: listed apart in the source
# Experimental: In these experiments, a 52° C. hot plate was used as the nociceptive stimulus.
# [10] = system: PCP-like discriminative stimulus effects; format: in vivo, rats
# Text: In this assay, rats who have been trained to lever press for food reinforcement must select which of two levers in their cages is correct. The only stimulus they hive for selecting the correct lever is their ability to detect whether they received a PCP or vehicle injection After about two months of training, rats become very good at discriminating PCP from vehicle injections and can then be tested with other drugs to determine if they are discriminated as PCP. When tested in this procedure, other drugs which are known to produce a PCP-like intoxication substitute for PCP. These drugs include various PCP analogs such as ketamine and the noncompetitive NMDA receptor antagonist, MK-801.
# neuronal vacuolization = details: i.p.
# mouse cortical neurons = assay: cells; details: Cortical neurone, read-out: IC50, prevention of NMDA-induced cell death
# Text: The effective concentrations of NMDA receptor antagonists vary depending on the particular experimental conditions and the type of cell studied (cortical, hippocampal, striatal).
# NMDA receptor [11] = details: rat hippocampal slices
# Experimental: (§2) Glutamate-mediated transmission at synapses of Schaffer collateral fibers and CA1 pyramidal cells was measured in slices of rat brain containing the hippocampus. This assay measures electrophysiologically the postsynaptic depolarization caused by the presynaptic release of glutamate, and can readily distinguish synaptic transmission mediated by NMDA or AMPA receptors.
# AMPA receptor = details: read-out: IC50 for the AMPA receptor-mediated response; rat hippocampal slices
# Experimental: as §2
# [12] = system: mean arterial blood pressure; details: rats; for Drop in Mean Arterial Blood Pressure / Drop in Mean Arterial Blood Pressure: duration: 1.5 μmoles/kg i.v.
# motor performance [13] = system: motor performance
# Text: In this assay, animals are placed on a wire-holed grid suspended from a rotating metal bar which can be inverted. The animals are then scored for their ability to climb to the top or hang on to the grid. […] This assay provides an index of “behavioral disruption” that may result from ataxia, loss of the righting reflex, sedation, or muscle relaxation.
# [14] = system: formalin-induced flinching; format: in vivo, Sprague-Dawley rats; details: 0.3-10 nmol i.th.
# [15] = Acute motor impairment (rotorod) in mice; details: mouse, in vivo, ip
# Experimental: (§3) In this assay, Frings and CF1 mice were injected with test compound and placed on a knurled rod which rotated at a speed of 6 rpm. The ability of the mice to maintain equilibrium for long periods of time was determined; those mice that were unable to maintain equilibrium on the rotorod for 1 min in each of 3 trials were considered impaired.
# motor performance [16] = assay: Acute motor impairment (rotorod) in mice
# Experimental: as §3
# NMDA receptor [17] = assay: Inhibition of NMDA/glycine-induced increases in intracellular calcium in cultured rat cerebellar granule cells (RCGC); format: cell-based
# NMDA-induced seizures = assay: animal or person; details: Mus musculus, sc, read-out: ED50 for NMDA stimulus
# Experimental: (§4) The first two models used DBA/2 mice which are prone to audiogenic seizures. […] The test substances were administered 15-30 min before the convulsant stimulus.
# L-type calcium channel [18] = assay: Inhibition of KCl depolarization-induced increases in intracellular calcium in cultured rat cerebellar granule cells; format: cell-based; details: cerebellar granule cells
# Text: as §1
# audiogenic seizures = assay: animal or person; format: in vivo, DBA/2 mice; details: Mus musculus, sc, read-out: ED50 for audiogenic stimulus
# Experimental: as §4
# [19] = system: delayed rectifier potassium channel; assay: Inhibition of delayed rectifier potassium channel in cultured N1E-115 neuroblastoma cells; format: cell-based; details: read-out: Delayed rectifier potassium channel: estimated IC50
# PBQ-elicited writhing = format: in vivo; details: 16 mg/kg i.p.
# Experimental: In the first series of experiments, the animals were administered an unpleasant stimulus (2-phenyl-1,4-benzoquinone, PBQ) which elicits a writhing response (abdominal stretching). Typically, the number of writhes occurring in a 5 min observation period is recorded. […] Nonsteroidal antiinflammatory agents are likewise effective in this model.
# [20] = system: central muscarinic cholinergic receptor; format: binding, rat
# induction of LTP = system: induction of LTP; set-up: species or system rat; details: at 100 μM
# [21] = system: PCP-like stereotypic behavior; assay: PCP-like stereotypic behavior (hyperexcitability and head weaving) in rats; details: 30 mg/kg i.p.
# Text: We investigated whether the arylalkylamines would elicit such behaviors.
# [22] = read-out: L-type calcium channel: estimated IC50, KCl depolarization-induced increases in intracellular calcium; cultured rat cerebellar granule cells
# [23] = read-out: IC50 against NMDA receptor-mediated increases in [Ca2+]i in cerebellar granule cells
smiles,measurement,setting,value
N=C(N)NCCCC(N)C(=O)NCCCNCCCNCCCCCNC(=O)C(CC(N)=O)NC(=O)Cc1ccc(O)cc1O (stereo not drawn) [Compound 1],increase in latency to foot licking,thermal nociception [1]; 4 mg/kg s.c.,136%
same,increase in latency to jumping,thermal nociception [1]; 32 mg/kg s.c.,360%
same,effect on responses to NMDA and kainate,NMDA receptors,blocked responses to NMDA at nanomolar concentrations without affecting the responses to kainate
same,IC50,[2],126 µM
same,"IC50, inhibition of acetic acid-induced writhing",[3],10 mg/kg
same,effect on locomotor activity,locomotor activity,did not elicit hyperactivity
same,"analgesic effect, tail flick (52° C. warm water)",thermal nociception [4],dose- and time-dependent analgesic effect
same,"IC50, prevention of sound-induced seizures",sound-induced seizures; intracerebroventricular (i.c.v.) injection,0.63 µg
same,"IC50, prevention of sound-induced seizures",sound-induced seizures; intraperitoneal injection,14.3 mg/kg
same,protection against neuronal cell loss,focal cerebral ischemia,approximately 15%
same,IC50,L-type calcium channel [5]; [22],257 µM
same,IC50,[6],808 µM
same,reduction in neuronal death / protection in region CA1 of the hippocampus,"[7]; 10 mg/kg, 7 days post-ischemia",23%
same,effect against seizures elicited by maximal electroshock,"[8]; CF1 mice, 4 μg i.c.v.",effective
same,"antinociceptive effect, hot plate",thermal nociception [9],dose- and time-dependent antinociceptive effects
same,substitution for PCP,[10]; 1-30 mg/kg i.p.,did not substitute for PCP
same,dose without neuronal vacuolization,neuronal vacuolization,100 mg/kg
same,IC50,mouse cortical neurons,70 µM
same,Suppression of NMDA Receptor-Mediated Synaptic Transmission (concentration which suppresses),NMDA receptor [11],10 to 30 µM
same,IC50,NMDA receptor [11]; read-out: IC50 for the NMDA receptor-mediated response,20 µM
same,IC50,AMPA receptor,647 µM
same,Drop in Mean Arterial Blood Pressure,[12],65 mm Hg at
same,Drop in Mean Arterial Blood Pressure: duration,[12],"i.v., 60 min"
same,motor performance in the inverted grid assay,motor performance [13]; 32 mg/kg s.c.,did not lessen the ability of DBA/2 mice to right themselves
same,"late-phase flinching, administered after the formalin",[14]; 10 min after formalin,significance was achieved only at the 10 nmol dose
same,"flinching behaviors, pretreatment to formalin",[14]; 10 min prior to formalin,effectively inhibited both early- and late-phase flinching behaviors
same,TD50,[15]; Frings,16.8 mg/kg
same,motor impairment in CF1 mice,motor performance [16]; 4 μg i.c.v.,motor impairment
same,dose that had to be exceeded before motor toxicity was evident,"motor performance [16]; Frings mice, i.c.v.",exceeded 1.56 μg
same,IC50,NMDA receptor [17]; [23],0.102 µM
NCCCNCCCCNCCCNCCCNCCCNC(=O)Cc1c[nH]c2ccccc12 [Compound 2],ED50,NMDA-induced seizures,0.083 mg/kg
same,concentrations inhibiting depolarization-induced increases in [Ca2+]i relative to those blocking responses to NMDA,L-type calcium channel [18],100 fold
same,IC50,L-type calcium channel [5]; [22],24 µM
same,"protection against neuronal cell death (CA1 of hippocampus, striatum and neocortex)","[7]; 20 mg/kg i.p. 30 minutes after reinstating blood flow, 4 days",significantly (p<0.05) protected against neuronal cell death
same,protection of the striatum,[7]; doses as low as 1 mg/kg,> 98%
same,IC50,mouse cortical neurons,30 µM
same,Suppression of NMDA Receptor-Mediated Synaptic Transmission (concentration which suppresses),NMDA receptor [11],10 to 30 µM
same,Drop in Mean Arterial Blood Pressure,[12],40 mm Hg at
same,Drop in Mean Arterial Blood Pressure: duration,[12],"i.v., 120 min"
same,motor performance in the inverted grid assay,motor performance [13]; 20 mg/kg s.c.,without effect
same,IC50,"NMDA receptor [17]; read-out: IC50 (μM) vs. NMDA, NMDA/glycine-induced increases in intracellular calcium, cultured rat cerebellar granule cells",0.192 µM
same,IC50,NMDA receptor [17]; [23],0.161 µM
same,ED50,audiogenic seizures,0.13 mg/kg
"NCCC(c1ccccc1)c1ccccc1 [Compound 19, 3,3-diphenylpropylamine]",analgesic activity in the hot-plate assay,thermal nociception [1]; 16 mg/kg i.p.,significant analgesic activity
same,IC50,[2],2.1 µM
same,IC50,[19],1 to 10 µM
same,analgesic activity in the PBQ-induced writhing assay,PBQ-elicited writhing,significant analgesic activity
same,IC50,"L-type calcium channel [5]; cultured rat cerebellar granule cells; read-out: L-type calcium channel: estimated IC50, KCl depolarization-induced increases in intracellular calcium",10.2 µM
same,Central muscarinic cholinergic receptor: percent block of [3H]QNB binding,[20]; at 0.1 μM,4% at
same,Central muscarinic cholinergic receptor: percent block of [3H]QNB binding,[20]; at 10 μM,0.174%
same,ED50,[8]; ip,26.4 mg/kg
same,ED50,[8]; oral (p.o.),35 mg/kg
same,no generalization to PCP at doses up to the behaviorally active dose of,"[10]; i.p., rats",≤ 30 mg/kg
same,Suppression of NMDA Receptor-Mediated Synaptic Transmission (concentration which suppresses),NMDA receptor [11],100 to 300 µM
same,without effect on blood pressure at doses up to,[12]; s.c.,up to 100 mg/kg
same,TD50,[15],43.8 mg/kg
same,motor impairment,"motor performance [16]; mice, 30 mg/kg p.o.",motor impairment
same,LTP Assay (block of the induction of LTP),induction of LTP,did block; also recorded: block at 100
same,PCP-like stereotypic behavior (hyperexcitability and head weaving),[21],no PCP-like stereotypic behavior
same,IC50,"NMDA receptor [17]; NMDA/glycine-induced increases in intracellular calcium, cultured rat cerebellar granule cells, read-out: IC50 (μM) vs. NMDA",0.435 µM

# Reference: patent US6750244B2, “Compounds active at a novel site on receptor-operated calcium channels useful for treatment of neurological disorders and diseases” (NPS Pharmaceuticals, Inc., priority 1993, dated 2004)
